Test results: patent publication US20240280490A1, “SYSTEMS AND METHODS FOR SIMULTANEOUS NEAR-INFRARED LIGHT AND VISIBLE LIGHT IMAGING” (priority 2020, published 2024)
“Also recorded” adds a separate entry of the source.

Experiments:
[1] = system: vascular lesion (abnormal vasculature) in brain tissue; experiment: Intraoperative NIR fluorescence imaging during resection of a cerebral vascular lesion (arteriovenous or cavernous malformation); format: in vivo, human; details: for Fluorescence in surrounding normal brain tissue and normal vasculature / Tozuleristide fluorescence in the abnormal vascular tissue / vascular lesion: pediatric subject, 22 mg IV approximately 5-6 hours before surgery and image collection, in situ
Description: (§1) This example describes use of the imaging system and/or methods disclosed herein for coaxial illumination and visualization of tozuleristide fluorescence during surgical resection of an arteriovenous malformation or cavernous malformation in a pediatric patient. The imaging system of the present invention was used to image brain tissue to detect abnormal vasculature using fluorescence imaging. Surgery was performed to remove the abnormality from the subject.
A pediatric subject with a history of anosmia was found on MRI to have a 3.5 cm T1-hypointense, T2/FLAIR-hyperintense mass in the right middle frontal gyrus with a central enhancing nodule, initially diagnosed pre-operatively to be a low-grade glioma. […] The patient received 22 mg tozuleristide via IV injection approximately 5-6 hours before surgery and image collection. The imaging system head was attached to the Zeiss Pentero surgical microscope along with two eyepieces prior the start of surgery.
After the lesion was exposed, the imaging system was initialized and used continuously. The imaging system enabled the surgeon to view fluorescence and visible imaging together and simultaneously with the operating microscope. A microsurgical resection was performed through a right frontal craniotomy. […] The abnormal tissue was completely resected. The patient recovered without deficit. Pathology confirmed the absence of tumor.
Video was captured for the duration of the resection, and still images were captured of the exposed lesion. […] FIGS. 29A-I show images taken from the vascular lesion with the near-infrared (NIR) fluorescence images of the vascular lesion using the imaging system. […] In the overlay image, the normal brain tissue and normal blood vessels appeared pink or light tan to red, as it does under normal visible light or white light. The surgeon noted that only the abnormal vascular tissue appeared fluorescent.
FIGS. 29A-I show representative images of in situ or intra-operative tissue during surgery on a vascular lesion in a patient, wherein 22 mg of tozuleristide was administered to the human subject. […] Labeled arrows indicate non-fluorescent regions of normal blood vessels (“BV”) and normal brain tissue (“NB”). In contrast, fluorescence signal corresponding to lighter and brighter areas in the NIR or IR image, was indicative of the presence of tozuleristide on the abnormal vascular lesion (“VL”), and not in normal tissue. […] The arrows mark the same locations as shown in the NIR or IR image in FIG. 29E. […] Fluorescence in the vascular lesion (“VL”) clearly differentiated it from the surrounding normal tissues, including normal blood vessels (“BV”). […] Arrows indicate the vascular lesion (labeled “VL”) and adjacent normal brain (labeled “NB”), which is non-fluorescent. […] While the normal brain has a light tan to pink color (light gray in a gray scale image), it is perfused with normal blood vessels that can be differentiated from the vascular lesion by the absence of fluorescence.

[2] = system: Grade 4 Atypical Teratoid Rhabdoid Tumor (ATRT) in the posterior fossa/brain stem; experiment: Intraoperative NIR fluorescence imaging during pediatric brain tumor resection; format: in vivo, human
Description: as §1, with “method” for “methods”, “of” for “of an arteriovenous malformation or cavernous malformation in”, “brain tumor.” for “patient.”, “a cancer” for “abnormal vasculature”, “cancer” for “the abnormality”
Subject T613 was diagnosed with a Grade 4 Atypical Teratoid Rhabdoid Tumor (ATRT) in the posterior fossa/brain stem. Tozuleristide which is a peptide-fluorophore detectable agent (15 mg/m2 dose), was given by intravenous (IV) bolus injection about 13.5 hours prior to the start of surgery. The imaging system was attached to the Zeiss Pentero surgical microscope prior the start of surgery, and the microscope head and arm and the imaging system and proximal imaging cable were enclosed in the microscope manufacturer's standard sterile drape. The drape's cover glass was secured over the bottom window aperture of the imaging system.
After the tumor was exposed, the imaging platform was initialized and used continuously. The imaging platform enabled the surgeon to view fluorescence and visible imaging separately and together on the imaging station display, simultaneously with viewing the surgical site in visible light through the operating microscope's eyepieces. […] Moreover, there was no need to reposition the operating microscope to view the imaging platform's fluorescence and visible images, thus allowing normal imaging of the surgical area through the microscope's eyepieces together with the fluorescence imaging system during the operation, which decreased disruption to the surgical workflow.
Video was captured for the duration of the tumor resection, and still images were captured of the exposed tumor. […] FIGS. 15A-15F show images taken from the tumor resection with the near-infrared (NIR) fluorescence images of the tumor using the imaging system (FIGS. 15B and 15E) and the overlay image with the NIR or IR fluorescence overlaid with the white light or visible light spectrum illumination (FIGS. 15C and 15F). […] In the overlay image, the normal brain tissue appeared red, as it does under normal visible light or white light as shown the visible light images of the tumor ([…]). The surgeon noted that only tumor tissue appeared fluorescent.

[3] = system: vascular lesion (abnormal vasculature) in brain tissue; details: ICG alone; general comparison statement; cited from earlier work
[4] = Subject T613, 15 mg/m2 IV bolus about 13.5 hours prior to start of surgery, in situ

| Compound | Time after injection at which diseased tissue can be highlighted ([1]; general statement, fluorescence dependent on pathological tissue binding and uptake) | Fluorescence in surrounding normal brain tissue and normal vasculature [1] | Tozuleristide fluorescence in the abnormal vascular tissue / vascular lesion [1] | Fluorescence in surrounding normal brain tissue and normal vasculature ([1]; listed as Tozuleristide) | Tozuleristide fluorescence in the abnormal vascular tissue / vascular lesion ([1]; listed as Tozuleristide) | Histopathology of the fluorescent tissue samples ([1]; vascular lesion resection) | Surgeon's assessment of the distinction between tumor and normal tissue fluorescence ([2]; NIR or IR fluorescence using the imaging system, compared with normal visible light) | Fluorescence in non-tumor brain tissue [2, 4] | Tozuleristide fluorescence in the exposed tumor (NIR or IR fluorescence image) [2, 4] | Histopathology of the fluorescent tissue samples ([2]; tumor resection, Subject T613) | Blood vessel fluorescence after injection [3] |
| --- | --- | --- | --- | --- | --- | --- | --- | --- | --- | --- | --- |
| Tozuleristide | up to 30 hours | showed no fluorescence | indicative of the presence of tozuleristide in the vascular lesion; also recorded: fluoresced avidly | no discernable background fluorescence | observed in situ in the exposed vascular lesion | confirmed to be non-cancerous and vascular in nature | very good distinction between tumor and normal tissue fluorescence | did not show any fluorescence | observed in situ in the exposed tumor | confirmed to be viable tumor | – |
| CC1(C)C(/C=C/C=C/C=C/C=C2\N(CCCCS(=O)(=O)O)c3ccc4ccccc4c3C2(C)C)=[N+](CCCCS(=O)(=O)[O-])c2ccc3ccccc3c21 [ICG, indocyanine green] | – | – | – | – | – | – | – | – | – | – | transiently lights up blood vessels immediately after injection |
